Source: the supplement of paper PMC10307832

Assays:
Assay in all cases: relative viability (nuclei count vs DMSO), 5 days (fraction); higher = more cells survive
[1] = tested on: LU99A
Outline: (§1)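 Lung cancer cell lines in 1536-well plates got either a single drug or a fixed anchor-drug dose together with five library-drug doses (not always all listed) in √10 steps, by pin tool, on the day after seeding. Nuclei were counted after 5 days, and relative viability is the treated-to-vehicle ratio of nuclei counts. Values are medians of duplicate plates.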

[2] = tested on: NCI-H322M
Outline: as §1

[3] = tested on: NCI-H661
Outline: as §1

[4] = tested on: NCI-H1651
Outline: as §1

[5] = tested on: LC-2-ad
Outline: as §1

[6] = tested on: NCI-H2087
Outline: as §1

[7] = tested on: H3255
Outline: as §1

[8] = tested on: ChaGo-K-1
Outline: as §1

[9] = tested on: LXF-289
Outline: as §1

[10] = tested on: PC-3 [JPC-3]
Outline: as §1

[11] = tested on: NCI-H1944
Outline: as §1

[12] = tested on: NCI-H358
Outline: as §1

[13] = tested on: NCI-H838
Outline: as §1

[14] = tested on: NCI-H596
Outline: as §1

[15] = tested on: LK-2
Outline: as §1

[16] = tested on: NCI-H1666
Outline: as §1

[17] = tested on: LCLC-97TM1
Outline: as §1

[18] = tested on: HCC-78
Outline: as §1

[19] = tested on: BEN
Outline: as §1

[20] = tested on: NCI-H2342
Outline: as §1

[21] = tested on: UMC-11
Outline: as §1

[22] = tested on: HCC-15
Outline: as §1

[23] = tested on: NCI-H650
Outline: as §1

[24] = tested on: SK-MES-1
Outline: as §1

COc1cc(N2CCC(C(N)=O)CC2)ccc1Nc1nc(N)c(Cl)c(Nc2ccccc2S(=O)(=O)C(C)C)n1 [HG-5-88-01] + Nc1nc2[nH]cc(CCc3ccc(C(=O)N[C@@H](CCC(=O)O)C(=O)O)cc3)c2c(=O)[nH]1 [Pemetrexed] (partner 0.2 µM)
relative viability ([1]; first compound 0.04 µM): 0.163 | relative viability ([1]; first compound 0.1265 µM): 0.211 | relative viability ([1]; first compound 0.4 µM): 0.165 | relative viability ([1]; first compound 1.265 µM): 0.193 | relative viability ([1]; first compound 4 µM): 0.168 | relative viability ([2]; first compound 0.04 µM): 0.638 | relative viability ([2]; first compound 0.1265 µM): 0.536 | relative viability ([2]; first compound 0.4 µM): 0.607 | relative viability ([2]; first compound 1.265 µM): 0.55 | relative viability ([2]; first compound 4 µM): 0.509 | relative viability ([3]; first compound 0.04 µM): 0.909 | relative viability ([3]; first compound 0.1265 µM): 0.931 | relative viability ([3]; first compound 0.4 µM): 0.883 | relative viability ([3]; first compound 1.265 µM): 0.974 | relative viability ([3]; first compound 4 µM): 0.965 | relative viability ([4]; first compound 0.04 µM): 0.499 | relative viability ([4]; first compound 0.1265 µM): 0.586 | relative viability ([4]; first compound 0.4 µM): 0.622 | relative viability ([4]; first compound 1.265 µM): 0.538 | relative viability ([4]; first compound 4 µM): 0.614 | relative viability ([5]; first compound 0.04 µM): 0.257 | relative viability ([5]; first compound 0.1265 µM): 0.257 | relative viability ([5]; first compound 0.4 µM): 0.259 | relative viability ([5]; first compound 1.265 µM): 0.275 | relative viability ([5]; first compound 4 µM): 0.267 | relative viability ([6]; first compound 0.04 µM): 0.664 | relative viability ([6]; first compound 0.1265 µM): 0.689 | relative viability ([6]; first compound 0.4 µM): 0.67 | relative viability ([6]; first compound 1.265 µM): 0.651 | relative viability ([6]; first compound 4 µM): 0.715 | relative viability ([7]; first compound 0.04 µM): 0.578 | relative viability ([7]; first compound 0.1265 µM): 0.571 | relative viability ([7]; first compound 0.4 µM): 0.54 | relative viability ([7]; first compound 4 µM): 0.501 | relative viability ([8]; first compound 0.04 µM): 0.262 | relative viability ([8]; first compound 0.1265 µM): 0.271 | relative viability ([8]; first compound 0.4 µM): 0.24 | relative viability ([8]; first compound 1.265 µM): 0.266 | relative viability ([8]; first compound 4 µM): 0.258 | relative viability ([9]; first compound 0.04 µM): 0.931 | relative viability ([9]; first compound 0.1265 µM): 0.933 | relative viability ([9]; first compound 0.4 µM): 0.887 | relative viability ([9]; first compound 1.265 µM): 0.93 | relative viability ([9]; first compound 4 µM): 0.926 | relative viability ([10]; first compound 0.04 µM): 1.16 | relative viability ([10]; first compound 0.1265 µM): 1.1 | relative viability ([10]; first compound 0.4 µM): 0.935 | relative viability ([10]; first compound 1.265 µM): 0.913 | relative viability ([10]; first compound 4 µM): 0.348 | relative viability ([11]; first compound 0.04 µM): 0.642 | relative viability ([11]; first compound 0.1265 µM): 0.695 | relative viability ([11]; first compound 0.4 µM): 0.643 | relative viability ([11]; first compound 1.265 µM): 0.615 | relative viability ([11]; first compound 4 µM): 0.564 | relative viability ([12]; first compound 0.04 µM): 0.145 | relative viability ([12]; first compound 0.1265 µM): 0.174 | relative viability ([12]; first compound 0.4 µM): 0.162 | relative viability ([12]; first compound 1.265 µM): 0.132 | relative viability ([12]; first compound 4 µM): 0.148 | relative viability ([13]; first compound 0.04 µM): 0.248 | relative viability ([13]; first compound 0.1265 µM): 0.256 | relative viability ([13]; first compound 0.4 µM): 0.209 | relative viability ([13]; first compound 1.265 µM): 0.234 | relative viability ([13]; first compound 4 µM): 0.246 | relative viability ([14]; first compound 0.04 µM): 0.499 | relative viability ([14]; first compound 0.1265 µM): 0.548 | relative viability ([14]; first compound 0.4 µM): 0.478 | relative viability ([14]; first compound 1.265 µM): 0.482 | relative viability ([14]; first compound 4 µM): 0.441 | relative viability ([15]; first compound 0.04 µM): 0.159 | relative viability ([15]; first compound 0.1265 µM): 0.295 | relative viability ([15]; first compound 0.4 µM): 0.249 | relative viability ([15]; first compound 4 µM): 0.202 | relative viability ([16]; first compound 0.04 µM): 0.893 | relative viability ([16]; first compound 0.1265 µM): 0.762 | relative viability ([16]; first compound 0.4 µM): 0.828 | relative viability ([16]; first compound 1.265 µM): 0.732 | relative viability ([16]; first compound 4 µM): 0.592 | relative viability ([17]; first compound 0.04 µM): 0.208 | relative viability ([17]; first compound 0.1265 µM): 0.179 | relative viability ([17]; first compound 0.4 µM): 0.132 | relative viability ([17]; first compound 1.265 µM): 0.155 | relative viability ([17]; first compound 4 µM): 0.131 | relative viability ([18]; first compound 0.04 µM): 0.824 | relative viability ([18]; first compound 0.1265 µM): 0.814 | relative viability ([18]; first compound 0.4 µM): 0.884 | relative viability ([18]; first compound 1.265 µM): 0.849 | relative viability ([18]; first compound 4 µM): 0.795 | relative viability ([19]; first compound 0.04 µM): 0.76 | relative viability ([19]; first compound 0.1265 µM): 0.648 | relative viability ([19]; first compound 0.4 µM): 0.717 | relative viability ([19]; first compound 1.265 µM): 0.687 | relative viability ([19]; first compound 4 µM): 0.711 | relative viability ([20]; first compound 0.04 µM): 0.664 | relative viability ([20]; first compound 0.1265 µM): 0.769 | relative viability ([20]; first compound 0.4 µM): 0.704 | relative viability ([20]; first compound 4 µM): 0.856 | relative viability ([21]; first compound 0.04 µM): 0.797 | relative viability ([21]; first compound 0.1265 µM): 0.772 | relative viability ([21]; first compound 0.4 µM): 0.844 | relative viability ([21]; first compound 1.265 µM): 0.827 | relative viability ([21]; first compound 4 µM): 0.789 | relative viability ([22]; first compound 0.04 µM): 0.209 | relative viability ([22]; first compound 0.1265 µM): 0.221 | relative viability ([22]; first compound 0.4 µM): 0.213 | relative viability ([22]; first compound 1.265 µM): 0.229 | relative viability ([22]; first compound 4 µM): 0.185 | relative viability ([23]; first compound 0.04 µM): 0.985 | relative viability ([23]; first compound 0.1265 µM): 0.91 | relative viability ([23]; first compound 0.4 µM): 0.844 | relative viability ([23]; first compound 1.265 µM): 0.896 | relative viability ([23]; first compound 4 µM): 0.476 | relative viability ([24]; first compound 0.04 µM): 0.922 | relative viability ([24]; first compound 0.1265 µM): 0.923 | relative viability ([24]; first compound 0.4 µM): 0.827 | relative viability ([24]; first compound 1.265 µM): 0.853 | relative viability ([24]; first compound 4 µM): 1
